Measurements reported in patent US8557839B2, “Fused ring azadecalin glucocorticoid receptor modulators” (Corcept Therapeutics, Inc., priority 2004, dated 2013).
pKi: −log10 of the molar value.

How the values were obtained:
[1] = molecular target: T1, glucocorticoid receptors (Homo sapiens, UniProt P04150); test: Glucocorticoid receptor binding displacement assay with 3H-dexamethasone; parameters: This GR was a full-length steroid hormone receptor; host or cells: recombinant baculovirus-infected insect cells; settings: Ki from IC50 by Cheng-Prusoff; 2.5 nM 3H-dexamethasone; read-out: GR Binding
T1 sequence (P04150 1-777): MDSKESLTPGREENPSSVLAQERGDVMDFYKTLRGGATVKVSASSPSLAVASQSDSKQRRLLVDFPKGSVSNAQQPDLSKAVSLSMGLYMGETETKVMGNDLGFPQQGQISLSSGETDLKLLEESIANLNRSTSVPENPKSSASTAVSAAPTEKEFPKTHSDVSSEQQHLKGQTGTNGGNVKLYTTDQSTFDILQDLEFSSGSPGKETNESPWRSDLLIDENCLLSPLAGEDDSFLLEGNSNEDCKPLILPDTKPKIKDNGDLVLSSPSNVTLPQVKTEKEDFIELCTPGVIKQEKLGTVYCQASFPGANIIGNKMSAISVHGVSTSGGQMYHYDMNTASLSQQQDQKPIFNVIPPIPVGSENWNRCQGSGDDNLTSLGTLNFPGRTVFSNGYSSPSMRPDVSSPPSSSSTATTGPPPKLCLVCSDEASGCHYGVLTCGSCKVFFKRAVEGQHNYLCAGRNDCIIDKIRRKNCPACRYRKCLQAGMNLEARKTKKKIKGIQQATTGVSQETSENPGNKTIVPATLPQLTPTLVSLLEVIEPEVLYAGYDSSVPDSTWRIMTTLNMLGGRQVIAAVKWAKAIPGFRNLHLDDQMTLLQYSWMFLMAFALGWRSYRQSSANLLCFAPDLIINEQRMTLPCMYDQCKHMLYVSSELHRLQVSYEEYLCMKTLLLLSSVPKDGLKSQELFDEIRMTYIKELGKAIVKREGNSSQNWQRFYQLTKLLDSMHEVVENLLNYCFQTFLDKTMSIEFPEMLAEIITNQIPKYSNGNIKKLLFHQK
Method: The source of the receptor was recombinant baculovirus-infected insect cells. This GR was a full-length steroid hormone receptor likely to be associated with heat-shock and other endogenous proteins.
For the Primary Screen, test compounds were tested at 1 μM in duplicate. These compounds were diluted from 10 mM stock in 100% DMSO. After dilution to 100 μM, 5 μl were added to 245 μl assay buffer to obtained 2 μM compound and 2% DMSO.
For the IC50 determinations, test compounds were tested at 6 concentrations in duplicate (concentration range depends on % inhibition binding that was obtained in the Primary Screen). Test compounds were diluted from 10 mM stock in 100% DMSO. The tested solutions were prepared at 2× final assay concentration in 2% DMSO/assay buffer.
All reagents and the assay plate were kept on ice during the addition of reagents. […] After the additions, the incubation mixture was mixed and incubated for 2.5 hrs at 4° C.
After 2.5 hrs incubation, unbound counts were removed with dextran coated charcoal (DCC) as follows: 25 μl of DCC solution (10% DCC in assay buffer) was added to all wells and mixed (total volume 225 μl). The plate was centrifuged at 4000 rpm for 10 minutes at 4° C. 75 μl of the supernatants (i.e.⅓ of total volume) was carefully pipetted into an optiplate. 200 μl of scintillation cocktail were added (Microscint-40, Packard Bioscience. B.V.). The plate was vigorously shaken for approx. 10 minutes and counted on Topcount.
The IC50 values were converted to Ki (the inhibition constant) using the Cheng-Prusoff equation.
Reagents: Assay buffer: 10 mM potassium phosphate buffer pH 7.6 containing 5 mM DTT, 10 mM sodium molybdate, 100 μM EDTA and 0.1% BSA.

[2] = molecular target: T1, glucocorticoid receptors; test: GR functional assay using SW1353/MMTV-5 cells (dexamethasone-induced luciferase); type: cell-based; parameters: contains endogenous glucocorticoid receptors; endogenous in cells; host or cells: SW1353/MMTV-5 (human chondrosarcoma, stably carrying the pMAMneo-Luc reporter); settings: read-out: GR Functional
Method: SW1353/MMTV-5 is an adherent human chondrosarcoma cell line that contains endogenous glucocorticoid receptors. It was transfected with a plasmid (pMAMneo-Luc) encoding firefly luciferase located behind a glucocorticoid-responsive element (GRE) derived from a viral promoter (long terminal repeat of mouse mammary tumor virus). A stable cell line SW1353/MMTV-5 was selected with geneticin, which was required to maintain this plasmid.
SW1353/MMTV-5 cells were distributed in 96-well plates and incubated in medium (without geneticin) for 24 hrs (in the absence of CO2).

[3] = SW1353/MMTV-5 cells, antagonism of 50 nM dexamethasone, luciferase

Compound | pKi [1] | pKi [2] | pKi [2, 3]
CC(C)(C)c1ccc(S(=O)(=O)N2CC[C@H]3Cc4c(cnn4-c4ccc(F)cc4)C[C@]3(CN3CCOCC3)C2)cc1 | > 8.00 | 7.00 to 8.00 | –
COCCOC[C@]12Cc3cnn(-c4ccc(F)cc4)c3C[C@@H]1CCN(S(=O)(=O)c1ccc(C(C)(C)C)cc1)C2 | > 8.00 | > 8.00 | –
Cc1ccccc1S(=O)(=O)N1CCC2=Cc3c(cnn3-c3ccc(F)cc3)C[C@]2(CN2CCOCC2)C1 | > 8.00 | 7.00 to 8.00 | –
COCC[C@]12Cc3cnn(-c4ccc(F)cc4)c3C=C1CCN(S(=O)(=O)c1ccc(C(C)(C)C)cc1)C2 | > 8.00 | > 8.00 | –
CC(C)(C)c1ccc(S(=O)(=O)N2CCC3=Cc4c(cnn4Cc4cccc(O)c4)CC3(Cc3ccccc3)C2)cc1 (stereo not drawn) [drawing 241] | < 7.00 | < 7.00 | –
COC[C@]12Cc3cnn(-c4ccc(F)cc4)c3C=C1CCN(S(=O)(=O)c1ccc(C)cc1)C2 | > 8.00 | > 8.00 | –
COC[C@]12Cc3cnn(-c4ccc(F)cc4)c3C[C@@H]1CCN(S(=O)(=O)c1ccc(C(C)(C)C)cc1)C2 | > 8.00 | < 7.00 | –
COCCOC[C@]12Cc3cnn(-c4ccc(F)cc4)c3C=C1CCN(S(=O)(=O)N(C)C)C2 | < 7.00 | < 7.00 | –
CS(=O)(=O)N1CCC2=Cc3c(cnn3-c3ccc(F)cc3)CC2(Cc2ccc(F)cc2)C1 (stereo not drawn) | 7.00 to 8.00 | < 7.00 | –
Fc1ccc(-n2ncc3c2C=C2CCN(Cc4c[nH]cn4)CC2(Cc2ccccc2)C3)cc1 (stereo not drawn) | < 7.00 | < 7.00 | –
O=S(=O)(c1ccc(F)cc1)N1CCC2=Cc3c(cnn3-c3ccc(F)cc3)C[C@]2(CO)C1 | > 8.00 | < 7.00 | –
O=S(=O)(c1ccccc1)N1CCC2=Cc3c(cnn3-c3ccc(F)cc3)C[C@]2(CO)C1 | 7.00 to 8.00 | – | –
CN(C)C[C@]12Cc3cnn(-c4ccc(F)cc4)c3C=C1CCN(S(=O)(=O)c1ccccc1)C2 | > 8.00 | 7.00 to 8.00 | –
COCCOC[C@]12Cc3cnn(C4CCCC4)c3C=C1CCN(S(=O)(=O)c1ccc(C)cc1)C2 | > 8.00 | 7.00 to 8.00 | –
O=S(=O)(c1ccc(F)cc1)N1CCC2=Cc3c(cnn3-c3ccc(F)cc3)C[C@]2(CN2CCCC2)C1 | > 8.00 | > 8.00 | –
CCCCS(=O)(=O)N1CCC2=Cc3c(cnn3-c3ccc(F)cc3)C[C@]2(CN2CCOCC2)C1 | 7.00 to 8.00 | < 7.00 | –
CC(C)(C)c1ccc(S(=O)(=O)N2CCC3=Cc4c(cnn4-c4ccc(C#N)cc4)CC3(Cc3ccccc3)C2)cc1 (stereo not drawn) [drawing 239] | > 8.00 | 7.00 to 8.00 | –
COCCOC[C@]12Cc3cnn(-c4ccc(F)cc4)c3C[C@@H]1CCN(S(=O)(=O)c1ccccc1)C2 | > 8.00 | 7.00 to 8.00 | –
COC(=O)C[C@]12Cc3cnn(-c4ccc(F)cc4)c3C=C1CCN(S(=O)(=O)c1ccc(C(C)(C)C)cc1)C2 | > 8.00 | 7.00 to 8.00 | –
CC(C)(C)c1ccc(S(=O)(=O)N2CCC3=Cc4c(cnn4-c4ccc(F)cc4)C[C@]3(CCN3CCCC3)C2)cc1 | 7.00 to 8.00 | 7.00 to 8.00 | –
COC[C@]12Cc3cnn(-c4ccc(F)cc4)c3C=C1CCN(S(=O)(=O)c1ccc(F)cc1)C2 | > 8.00 | 7.00 to 8.00 | –
CN1CCOc2cc(S(=O)(=O)N3CCC4=Cc5[nH]ncc5CC4(Cc4ccccc4)C3)ccc21 (stereo not drawn) [drawing 231] | > 8.00 | – | < 7.00
CC(C)(C)c1ccc(S(=O)(=O)N2CCC3=Cc4c(cnn4-c4ccc(F)cc4)C[C@]3(COCCN3CCCCC3)C2)cc1 | > 8.00 | 7.00 to 8.00 | –
CCCCn1ncc2c1C=C1CCN(S(=O)(=O)c3ccc(C)cc3)C[C@@]1(CN1CCCCC1)C2 | 7.00 to 8.00 | – | –

Compound | pKi [1] | pKi [2] | pKi [2, 3]
Fc1ccc(-n2ncc3c2C=C2CCN(Cc4ccncc4)CC2(Cc2ccccc2)C3)cc1 (stereo not drawn) | 7.00 to 8.00 | < 7.00 | –
O=S(=O)(c1ccccc1)N1CCC2=Cc3c(cnn3-c3ccc(F)cc3)C[C@]2(COCCO)C1 | > 8.00 | 7.00 to 8.00 | –
CCCCn1ncc2c1C=C1CCN(S(=O)(=O)c3ccc(C)cc3)C[C@@]1(C(=O)OC)C2 | < 7.00 | < 7.00 | –
CN(C)C[C@]12Cc3cnn(-c4ccc(F)cc4)c3C=C1CCN(S(=O)(=O)c1ccc(F)cc1)C2 | > 8.00 | 7.00 to 8.00 | –
CC(C)(C)c1ccc(S(=O)(=O)N2CCC3=Cc4c(cnn4-c4ccc(F)cc4)C[C@]3(CCO)C2)cc1 | > 8.00 | 7.00 to 8.00 | –
N#Cc1ccc(S(=O)(=O)N2CCC3=Cc4c(cnn4-c4ccc(F)cc4)C[C@]3(CN3CCOCC3)C2)cc1 | > 8.00 | < 7.00 | –
CC(C)(C)c1ccc(S(=O)(=O)N2CCC3=Cc4c(cnn4-c4ccc(C#N)cc4)CC3(Cc3ccccc3)C2)cc1 (stereo not drawn) [drawing 255] | > 8.00 | – | 7.00 to 8.00
C[C@]12Cc3cnn(-c4ccc(F)cc4)c3C=C1CCN(S(=O)(=O)N1CCCCC1)C2 | 7.00 to 8.00 | < 7.00 | –
O=S(=O)(c1ccccc1)N1CCC2=Cc3c(cnn3-c3ccc(F)cc3)CC2(Cc2ccc(F)cc2)C1 (stereo not drawn) | > 8.00 | 7.00 to 8.00 | –
O=S(=O)(c1ccc(F)cc1)N1CCC2=Cc3c(cnn3-c3ccc(F)cc3)CC2(Cc2ccc(F)cc2)C1 (stereo not drawn) | > 8.00 | 7.00 to 8.00 | –
CC(C)(C)c1ccc(S(=O)(=O)N2CCC3=Cc4c(cnn4-c4ccc(F)cc4)C[C@]3(C(=O)N3CCCCC3)C2)cc1 | > 8.00 | < 7.00 | –
O=S(=O)(c1ccc(N2CCOCC2)nc1)N1CCC2=Cc3c(cnn3-c3ccc(F)cc3)CC2(Cc2ccc(F)cc2)C1 (stereo not drawn) | > 8.00 | 7.00 to 8.00 | –
CCCCn1ncc2c1C=C1CCN(S(=O)(=O)c3ccc(C)cc3)C[C@@]1(COC)C2 | 7.00 to 8.00 | < 7.00 | –
COc1ccc(-n2ncc3c2C=C2CCN(S(=O)(=O)c4ccc(C(C)(C)C)cc4)C[C@@]2(Cc2ccccc2)C3)cc1 | > 8.00 | 7.00 to 8.00 | –
CCOC[C@]12Cc3cnn(-c4ccc(F)cc4)c3C=C1CCN(S(=O)(=O)c1ccc(C(C)(C)C)cc1)C2 | > 8.00 | > 8.00 | –
CC(C)n1ncc2c1C=C1CCN(S(=O)(=O)c3ccc(C(C)(C)C)cc3)C[C@@]1(CN(C)C)C2 | 7.00 to 8.00 | < 7.00 | –
Fc1ccc(-n2ncc3c2C=C2CCN(Cc4ccccc4)CC2(Cc2ccccc2)C3)cc1 (stereo not drawn) [drawing 242] | 7.00 to 8.00 | < 7.00 | –
COC(=O)[C@]12Cc3cnn(-c4ccc(F)cc4)c3C=C1CCN(S(=O)(=O)c1ccc(C(C)(C)C)cc1)C2 | > 8.00 | 7.00 to 8.00 | –
CC(C)(C)c1ccc(S(=O)(=O)N2CCC3=Cc4c(cnn4-c4ccc(C(F)(F)F)cc4)CC3(Cc3ccccc3)C2)cc1 (stereo not drawn) [drawing 238] | 7.00 to 8.00 | – | –
O=S(=O)(c1ccccn1)N1CCC2=Cc3c(cnn3-c3ccc(F)cc3)C[C@]2(CN2CCOCC2)C1 | > 8.00 | – | –
CC(C)(C)c1ccc(S(=O)(=O)N2CCC3=Cc4c(cnn4Cc4cccc(O)c4)CC3(Cc3ccccc3)C2)cc1 (stereo not drawn) [drawing 257] | < 7.00 | – | –
CC(C)(C)c1ccc(S(=O)(=O)N2CCC3=Cc4c(cnn4-c4ccccn4)C[C@]3(C)C2)cc1 | 7.00 to 8.00 | – | –
CC(C)(C)c1ccc(S(=O)(=O)N2CCC3=Cc4c(cnn4-c4ccc(C(F)(F)F)cc4)CC3(Cc3ccccc3)C2)cc1 (stereo not drawn) [drawing 254] | 7.00 to 8.00 | – | –
